One assay has as its target human CYP17 (Homo sapiens (Human), UniProt P05093). As to the kind of experiment: CYP17 inhibition assay (membrane fraction of E. coli expressing human CYP17, substrate progesterone). It is filed as biochemical. Particulars: 25 μM, inhibitor concentration 2.0 μM; for inhibition at 2 µM: read-out: inhibition (%) CYP 17. As to the method: Recombinant E. coli pJL17/OR coexpressing human CYP17 and rat NADPH-P450-reductase were grown and stored as described by Ehmer et al. (J. Steroid Biochem. Mol. Biol., 2000, 75, 57-63)
For isolation of membrane fractions, 5 ml of bacterial suspension with an OD578 of 50 were washed using phosphate buffer (0.05 M, pH 7.4, 1 mM MgCl2, 0.1 mM EDTA and 0.1 mM dithiothreitol). Bacteria were harvested by centrifugation (2000×g) and the pellet was resuspended in 10 ml ice-cold TES buffer (0.1 M tris-acetate, pH 7.8, 0.5 mM EDTA, 0.5 M sucrose). Lysozyme was added with 10 ml of ice-cold water resulting in a concentration of 0.2 mg/ml followed by incubation for 30 min on ice with continuous shaking. Spheroplasts were harvested by centrifugation (12000×g, 10 min), and resuspended in 4 ml of ice-cold phosphate buffer (the same as described above plus 0.5 mM phenylmethylsulfonylfluoride (PMSF)).
After that spheroplasts were sonicated on ice (pulse 20 s on, 30 s off, five times), using a sonicator Sonopuls HD60 (Bandelin, Berlin, Germany) at maximum power. Unbroken cells and debris were pelleted at 3000×g for 7 min, and the supernatant was centrifuged at 50000×g for 20 min at 4° C. The membrane pellet was resuspended in 2 ml of phosphate buffer (the same as described above) with 20% glycerol using an ultra-turrax T25 (IKA-Labortechnik, Staufen, Germany). Protein concentration was determined by the method of Lowry.
The assay was performed as follows: a solution of 6.25 nmol progesterone (in 5 μl methanol) in 140 μl phosphate buffer (0.05 M, pH 7.4, 1 mM MgCl2, 0.1 mM EDTA and 0.1 mM dithiothreitol), 50 μl NADPH generating system (in phosphate buffer with 10 mM NADP, 100 mM glucose-6-phosphate and 2.5 units of glucose-6-phosphate-dehydrogenase) and inhibitor (in 5 μl DMSO) was pre-incubated at 37° C. for 5 min. Control cups were supplemented with 5 μl DMSO without inhibitor. The reaction was started by adding 50 μl of a 1:5 diluted membrane suspension in phosphate buffer (0.8-1.0 mg protein per ml). The maximum DMSO concentration in each sample was 2%. After mixing, incubation was performed for 30 min at 37° C. Subsequently the reaction was stopped with 50 μl 1 N HCl.
Extraction of the steroids was performed by addition of 1.0 ml ethyl acetate and vigorous shaking for 1 min. After a centrifugation step (5 min, 2500×g) the organic phase (0.9 ml) was transferred into a fresh cup containing 0.25 ml of incubation buffer and 50 μl 1 N HCl and mixed again. After centrifugation, 0.8 ml ethyl acetate solution was evaporated to dryness in a fresh cup. After that the steroids were redissolved in solvent for HPLC analysis (Hutschenreuter et. al. J. Enz. Inhib. Med. Chem. 2004, 19, 17-32).
The above experiment was conducted at least three times and a mean value for the CYP17 inhibition calculated.

Another assay deals with Human placental CYP19 (Homo sapiens (Human), UniProt P11511). As to the kind of experiment: CYP19 (aromatase) assay, human placental microsomes, 3H2O release. It counts as biochemical. Particulars: substrate androstenedione, 500 nM, inhibitor concentration 500 nM; for inhibition at 0.5 µM: read-out: inhibition (%) CYP 19. As for the experimental part: The enzyme was obtained from the microsomal fraction of freshly delivered human term placental tissue according to the procedure of Thompson and Siiteri (Thompson, E. A.; Siiteri, P. K. J. Biol. Chem. 1974, 249, 5364).
The isolated microsomes were suspended in a minimum volume of phosphate buffer (0.05 M, pH 7.4, 20% glycerol). Additionally, DTT (dithiothreitol, 10 mM) and EDTA (1 mM) were added to protect the enzyme from degradation. The enzyme preparation was stored at −70° C.
The assay was performed monitoring enzyme activity by measuring the ^3H2O formed from [1β-^3H]androstenedione during aromatization (Hartmann et al. J. Med. Chem. 1986, 29, 1362-1369). […] The test compounds were dissolved in DMSO and diluted with buffer. The final DMSO concentration in the control and inhibitor incubation was 2%. Each tube was pre-incubated for 5 min at 30° C. in a water bath. Microsomal protein was added to start the reaction (0.1 mg). The total volume for each incubation was 0.25 ml. The reaction was terminated by the addition of 200 μl of a cold 1 mM HgCl2 solution. After addition of 200 μl of an aqueous dextran-coated charcoal (DCC) suspension (2%), the vials were shaken for 20 min and centrifuged at 1500×g for 5 min to separate the charcoal-absorbed steroids. The supernatant was assayed for ^3H2O by counting in a scintillation mixture using a β-counter. The calculation of the IC50 values was performed by plotting the percent inhibition vs. the concentration of inhibitor on a semi-log plot.
The above experiment was conducted at least three times and a mean value for the CYP19 inhibition calculated.

A further assay concerns the target human CYP11B2 (Homo sapiens (Human), UniProt P19099). Kind of assay: Cellular assay for CYP11B2 inhibition (V79MZh11B2 hamster fibroblasts, substrate 11-deoxycorticosterone). Particulars: for IC50: read-out: IC50 value CYP11B2, Hamster fibroblasts expressing human CYP11B2, 100 nM, mean of at least three experiments, n.i. = no inhibition at an inhibitor concentration of 500 nM.

Another assay deals with human CYP11B1 (Homo sapiens (Human), UniProt P15538). Kind of assay: Cellular assay for CYP11B1 inhibition (V79MZh11B1 hamster fibroblasts, substrate 11-deoxycorticosterone). Particulars: for sf: selectivity factor: IC50 (CYP11B2)/IC50 (CYP11B1): ratio IC50 (CYP11B2)/IC50 (CYP11B1); for IC50: read-out: IC50 value CYP11B1, Hamster fibroblasts expressing human CYP11B1, substrate 11-deoxycorticosterone, 100 nM, mean of at least three experiments.
human CYP11B1, sequence (P15538 25-503): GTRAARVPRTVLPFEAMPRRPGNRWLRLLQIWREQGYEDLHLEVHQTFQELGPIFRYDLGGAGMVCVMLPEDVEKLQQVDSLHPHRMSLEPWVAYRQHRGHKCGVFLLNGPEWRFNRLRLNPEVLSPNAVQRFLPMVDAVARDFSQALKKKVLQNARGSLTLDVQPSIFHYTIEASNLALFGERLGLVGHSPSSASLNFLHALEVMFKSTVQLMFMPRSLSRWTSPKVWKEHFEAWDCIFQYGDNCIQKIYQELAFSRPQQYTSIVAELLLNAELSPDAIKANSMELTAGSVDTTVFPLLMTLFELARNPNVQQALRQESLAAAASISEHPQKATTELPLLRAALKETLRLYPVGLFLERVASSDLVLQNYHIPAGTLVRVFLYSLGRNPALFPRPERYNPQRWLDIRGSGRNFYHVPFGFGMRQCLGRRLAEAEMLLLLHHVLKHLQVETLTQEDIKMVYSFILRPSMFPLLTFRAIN

human CYP17, sequence (P05093 whole entry): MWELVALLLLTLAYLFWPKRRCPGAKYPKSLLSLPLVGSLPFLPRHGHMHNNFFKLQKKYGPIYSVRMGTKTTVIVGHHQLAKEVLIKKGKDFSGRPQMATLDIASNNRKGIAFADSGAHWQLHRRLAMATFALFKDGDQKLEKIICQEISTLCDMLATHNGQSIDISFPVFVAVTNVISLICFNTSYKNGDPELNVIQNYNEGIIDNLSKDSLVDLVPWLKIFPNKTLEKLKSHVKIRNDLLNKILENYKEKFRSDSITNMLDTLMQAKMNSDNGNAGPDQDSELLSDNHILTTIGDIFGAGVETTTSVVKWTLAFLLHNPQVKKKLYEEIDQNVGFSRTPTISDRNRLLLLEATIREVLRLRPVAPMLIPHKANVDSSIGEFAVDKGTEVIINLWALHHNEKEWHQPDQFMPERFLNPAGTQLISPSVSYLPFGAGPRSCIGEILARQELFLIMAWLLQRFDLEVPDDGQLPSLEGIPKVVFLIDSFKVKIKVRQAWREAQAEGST
human CYP11B2, sequence (P19099 25-503): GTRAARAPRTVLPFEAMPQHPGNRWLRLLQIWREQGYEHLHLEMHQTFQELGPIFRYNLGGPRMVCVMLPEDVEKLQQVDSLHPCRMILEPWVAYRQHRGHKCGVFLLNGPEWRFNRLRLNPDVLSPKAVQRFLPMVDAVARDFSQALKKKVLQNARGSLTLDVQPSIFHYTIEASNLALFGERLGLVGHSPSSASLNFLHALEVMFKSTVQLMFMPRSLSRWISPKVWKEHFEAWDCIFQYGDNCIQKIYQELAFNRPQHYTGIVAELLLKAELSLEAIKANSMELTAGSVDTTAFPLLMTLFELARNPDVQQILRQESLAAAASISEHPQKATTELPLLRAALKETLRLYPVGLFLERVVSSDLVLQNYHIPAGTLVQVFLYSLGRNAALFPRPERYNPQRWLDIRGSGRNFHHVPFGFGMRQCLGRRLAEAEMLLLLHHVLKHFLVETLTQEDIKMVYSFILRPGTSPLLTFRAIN
Human placental CYP19, sequence (P11511 whole entry): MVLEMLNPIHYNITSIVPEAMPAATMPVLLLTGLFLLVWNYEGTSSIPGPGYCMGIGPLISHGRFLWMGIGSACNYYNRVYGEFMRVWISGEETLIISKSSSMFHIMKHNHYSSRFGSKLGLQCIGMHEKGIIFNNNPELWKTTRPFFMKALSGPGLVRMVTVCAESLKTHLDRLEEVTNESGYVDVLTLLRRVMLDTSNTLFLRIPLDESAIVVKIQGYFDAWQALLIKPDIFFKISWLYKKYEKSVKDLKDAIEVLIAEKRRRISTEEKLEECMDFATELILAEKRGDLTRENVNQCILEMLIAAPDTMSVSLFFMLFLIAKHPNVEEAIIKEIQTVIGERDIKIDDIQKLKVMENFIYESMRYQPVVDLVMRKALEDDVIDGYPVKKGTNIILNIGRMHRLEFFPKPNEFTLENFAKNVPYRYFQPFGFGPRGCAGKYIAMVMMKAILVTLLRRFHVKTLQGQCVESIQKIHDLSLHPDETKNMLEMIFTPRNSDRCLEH

In the case of `c1ccc(-c2cc(Cn3ccnc3)cnc2-c2ccccc2)cc1` [Compound 35, 5-Imidazol-1-ylmethyl-2,3-diphenyl-pyridine], on human CYP17, the “inhibition (%) CYP 17” value is 5%. Moreover, the “inhibition (%) CYP 19” value on Human placental CYP19 worked out at 30%. In addition, at human CYP11B2, the IC50 turned out to be 0.416 µM. At human CYP11B1, the “sf: selectivity factor: IC50 (CYP11B2)/IC50 (CYP11B1)” value (shortened to “sf: selectivity factor: IC50”) was 6 and the IC50 is 0.073 µM.

As to `Fc1ccc(-c2ccc(Cn3ccnc3)cn2)cc1F` [Compound 10, 2-(3,4-Difluoro-phenyl)-5-imidazol-1-ylmethyl-pyridine], the inhibition at 2 µM on human CYP17 was determined as 0%. For the same molecule, the IC50 on human CYP11B2 turned out to be 1.67 µM. Also, on human CYP11B1, the “sf: selectivity factor: IC50” value turned out to be 5 and the IC50 came out at 0.329 µM.

Regarding `c1csc(-c2ccc(Cn3ccnc3)cn2)c1` [Compound 31, 5-Imidazol-1-ylmethyl-2-thiophen-2-yl-pyridine], the inhibition at 2 µM at human CYP17 amounted to 8%. In addition, the inhibition at 0.5 µM at Human placental CYP19 came to 3%. Moreover, the IC50 at human CYP11B2 was found to be 1.24 µM. Besides, at human CYP11B1, the “sf: selectivity factor: IC50” value is listed as 17 and the IC50 was determined as 0.075 µM.

For `c1ccc(N(c2ccccc2)c2ccc(-c3ccc(Cn4ccnc4)cn3)cc2)cc1` [Compound 22, [4-(5-Imidazol-1-ylmethyl-pyridin-2-yl)-phenyl]-diphenyl-amine], the inhibition at 2 µM on human CYP17 turned out to be 2%. Besides, the inhibition at 0.5 µM at Human placental CYP19 came to 1%. The “IC50 value CYP11B2” value on human CYP11B2 (Hamster fibroblasts expressing human CYP11B2, 100 nM, mean of at least three experiments, n.i. = no inhibition at an inhibitor concentration of 500 nM) is reported as “n.i.^d”. For the same molecule, the IC50 on human CYP11B1 is 0.611 µM.

Regarding `COc1ccc(-c2ccc(Cn3ccnc3)cn2)cc1OC` [Compound 14, 2-(3,4-Dimethoxy-phenyl)-5-imidazol-1-ylmethyl-pyridine], the inhibition at 2 µM on human CYP17 amounted to 2%. Besides, the IC50 on human CYP11B2 and on human CYP11B1 was greater than 1 µM throughout.

In the case of `c1csc(-c2ncccc2Cn2ccnc2)c1` [Compound 36, 3-Imidazol-1-ylmethyl-2-thiophen-2-yl-pyridine], on human CYP17, the inhibition at 2 µM stood at 0%. Further, on Human placental CYP19, the inhibition at 0.5 µM was determined as 19%. The IC50 at human CYP11B2 came to 0.251 µM; on human CYP11B1, 0.016 µM. At human CYP11B1, the “sf: selectivity factor: IC50” value is reported as 16.

For `Nc1cccc(-c2ccc(Cn3ccnc3)cn2)c1` [Compound 16, 3-(5-Imidazol-1-ylmethyl-pyridin-2-yl)-phenylamine], the inhibition at 2 µM on human CYP17 was 3%. For the same molecule, at Human placental CYP19, the inhibition at 0.5 µM turned out to be 2%. For the same molecule, the IC50 was determined as 3.41 µM on human CYP11B2 and 0.11 µM at human CYP11B1. The “sf: selectivity factor: IC50” value on human CYP11B1 is 31.

As to `c1ccc2c(-c3ccc(Cn4ccnc4)cn3)csc2c1` [Compound 38, 2-Benzo[b]thiophen-3-yl-5-imidazol-1-ylmethyl-pyridine], the inhibition at 2 µM on human CYP17 amounted to 4%. Moreover, at Human placental CYP19, the inhibition at 0.5 µM came out at 0%. Further, the IC50 on human CYP11B2 was found to be 1.16 µM. Moreover, on human CYP11B1, the “sf: selectivity factor: IC50” value is 29 and the IC50 turned out to be 0.04 µM.

Consider `c1coc(-c2cc(Cn3ccnc3)cnc2-c2ccco2)c1` [Compound 42, 2,3-Di-furan-2-yl-5-imidazol-1-ylmethyl-pyridine], for which the inhibition at 2 µM on human CYP17 was found to be 6.7%. Moreover, the inhibition at 0.5 µM on Human placental CYP19 amounted to 2.2%. Further, the IC50 at human CYP11B2 came to 0.83 µM. Further, at human CYP11B1, the “sf: selectivity factor: IC50” value was determined as 29 and the IC50 worked out at 0.029 µM.

Consider `Brc1ncccc1Cn1ccnc1` [Compound 5, 2-Bromo-3-imidazol-1-ylmethyl-pyridine], for which the inhibition at 2 µM at human CYP17 is 3%. Besides, the inhibition at 0.5 µM on Human placental CYP19 stood at 2%. The IC50 amounted to 0.911 µM at human CYP11B2 and 0.061 µM on human CYP11B1. The “sf: selectivity factor: IC50” value at human CYP11B1 came to 15.

As for `COc1ccc(-c2ccc(Cn3ccnc3)cn2)cc1` [Compound 13, 5-Imidazol-1-ylmethyl-2-(4-methoxy-phenyl)pyridine], on human CYP17, the inhibition at 2 µM was 0%. In addition, the IC50 was greater than 1 µM at human CYP11B2 and 0.782 µM on human CYP11B1.

For `Fc1ccccc1-c1ccc(Cn2ccnc2)cn1` [Compound 7, 2-(2-Fluoro-phenyl)-5-imidazol-1-ylmethyl-pyridine], the inhibition at 2 µM on human CYP17 is 3%. On Human placental CYP19, the inhibition at 0.5 µM was 0%. The values for the IC50 at human CYP11B2 and at human CYP11B1 were 1.74 µM and 0.072 µM, respectively. At human CYP11B1, the “sf: selectivity factor: IC50” value turned out to be 24.

For `c1cn(Cc2ccc(-c3ccsc3)nc2)cn1` [Compound 32, 5-Imidazol-1-ylmethyl-2-thiophen-3-yl-pyridine], the inhibition at 2 µM on human CYP17 amounted to 3%. In addition, the inhibition at 0.5 µM at Human placental CYP19 was 0%. Moreover, the IC50 on human CYP11B2 turned out to be 3.27 µM. Also, at human CYP11B1, the “sf: selectivity factor: IC50” value turned out to be 26 and the IC50 came to 0.126 µM.

Turning to `Nc1ccc(-c2ccc(Cn3ccnc3)cn2)cc1` [Compound 17, 4-(5-Imidazol-1-ylmethyl-pyridin-2-yl)-phenylamine], on human CYP17, the inhibition at 2 µM came to 4%. Further, the inhibition at 0.5 µM on Human placental CYP19 worked out at 1%. For the same molecule, at human CYP11B2, the IC50 stood at 0.528 µM. Also, on human CYP11B1, the “sf: selectivity factor: IC50” value is on record as 5 and the IC50 is 0.106 µM.

As for `Fc1ccc(-c2ccc(Cn3ccnc3)cn2)cc1` [Compound 9, 2-(4-Fluoro-phenyl)-5-imidazol-1-ylmethyl-pyridine], the inhibition at 2 µM on human CYP17 came to 5%. In addition, on human CYP11B2, the IC50 was 2.15 µM. Besides, on human CYP11B1, the “sf: selectivity factor: IC50” value is on record as 10 and the IC50 worked out at 0.213 µM.

For the molecule `Fc1cccc(-c2ccc(Cn3ccnc3)cn2)c1` [Compound 8, 2-(3-Fluoro-phenyl)-5-imidazol-1-ylmethyl-pyridine], at human CYP17, the inhibition at 2 µM was 1%. For the same molecule, the IC50 at human CYP11B2 is greater than 1 µM; on human CYP11B1, 0.32 µM.

Regarding `O=Cc1ccc(-c2ccc(Cn3ccnc3)cn2)cc1` [Compound 21, 4-(5-Imidazol-1-ylmethyl-pyridin-2-yl)-benzaldehyde], at human CYP17, the inhibition at 2 µM turned out to be 0%. The IC50 at human CYP11B2 is greater than 1 µM; on human CYP11B1, 0.246 µM.

As to `Brc1ccc(Cn2ccnc2)cn1` [Compound 1a, 5-Imidazol-1-ylmethyl-2-bromopyridine], the IC50 on human CYP11B2 is greater than 1 µM; on human CYP11B1, 0.5 µM.

Usually inhibition stands for the drop in the measured response relative to a control, in per cent.

Values taken from US9394290B2, “Selective CYP11B1 inhibitors for the treatment of cortisol dependent diseases” (UNIVERSITAET DES SAARLANDES CAMPUS SAARBRUECKEN, priority 2010, dated 2016).
